The values that follow come from patent US9029327B2, “Vaccine” (Affiris AG, priority 2009, dated 2015).

No end group written: not given here.

The conditions of assay [1]: % of the activity of Ang II; cited from earlier work.
A further assay relates to Ang II peptide. The experiment in a line: peptide based ELISA of sera from vaccinated mice: binding capacity/titers against the Ang II peptide. The format is in vivo. The conditions noted are these: BALB/c mice, peptide-KLH, Alum; for reactivity/titer of induced sera against Ang II: ELISA titer ODmax/2, compared with sera evoked by Ang II peptide (set as 100%). The protocol:
(§1) In each Figure, on the X-axis sera derived from animals immunized with indicated peptides are listed. On the Y-axis relative titers of induced sera are shown. Titers derived from Ang II treated animals were set as 100%. Titers were calculated as the sera dilution giving half-maximal binding (i.e. ODmax/2). White bars indicate titers against the peptides that were used for vaccination while black bars represent titers against the Ang II peptide.
Therefore, in a first set of experiments each position in the Ang II sequence was systematically replaced by amino acids having similar or different features (see Table 1 for position 2). Subsequently all these peptides were chemically linked via an additional N-terminal cysteine to the protein carrier keyhole limpet haemocyanin (KLH) and administrated to mice (BALB/c) together with Alum as adjuvant. Sera from vaccinated mice were used to analyze the immunogenicity of indicated peptides. For this purpose a peptide based ELISA assay was used to define sera titers against the injected peptide (i.e. Ang II peptide variants, VARIOTOPEs) as well as to define the binding capacity of the obtained sera against the Ang II peptide.
In the Figures (FIGS. 1 to 8 for position 1 to position 8) the results derived from these experiments are shown. On the X-axis sera derived from animals immunized with indicated peptides are listed. On the Y-axis relative titers of induced sera are shown. Titers derived from Ang II treated animals were set as 100%. Titers were calculated as the sera dilution giving half-maximal binding (i.e. ODmax/2). White bars indicate titers against the peptides that were used for vaccination while black bars represent titers against the Ang II peptide.
(§2) All peptides listed in Table 2 were again chemically linked via the N-terminus to KLH adsorbed to Alum and injected s.c. into experimental animals (BALB/c mice). Sera were analyzed by ELISA and antibody responses induced by the peptide variants were compared to that one induced by the original peptide.
(An ELISA detects its analyte on a solid surface through an enzyme-linked reagent.)

Assay [2] concerns injected peptide (Ang II peptide variants, VARIOTOPEs). The experiment in a line: peptide based ELISA of sera from vaccinated mice: titers against the injected peptide. The class given is in vivo. The following applies: BALB/c mice, peptide linked via N-terminal cysteine to KLH, Alum; ELISA titer ODmax/2, compared with Ang II treated animals (set as 100%). On the procedure: as §1
Therefore, in a first set of experiments each position in the Ang II sequence was systematically replaced by amino acids having similar or different features (see Table 1 for position 2). Subsequently all these peptides were chemically linked via an additional N-terminal cysteine to the protein carrier keyhole limpet haemocyanin (KLH) and administrated to mice (BALB/c) together with Alum as adjuvant. […]
In the Figures (FIGS. 1 to 8 for position 1 to position 8) the results derived from these experiments are shown. […] Titers were calculated as the sera dilution giving half-maximal binding (i.e. ODmax/2). […]
as §2

Consider Ang IV, for which, in assay [1], the “activity relative to Ang II” value is “approximately 40%”.
As for “C-DAVYIAAA (CDAVYIAAA; also: C-terminal modification)”, the “reactivity/titer of induced sera against Ang II” value (from here on “reactivity/titer of induced sera”) with Ang II peptide was “diminished reactivity”.
Turning to “C-DAVYIAAF (CDAVYIAAF; also: C-terminal modification)”, the “sera titer against the injected peptide” value in assay [2] is reported as “lower compared to the titers induced by the other antigens”. In addition, the “reactivity/titer of induced sera” value in the assay on Ang II peptide is given as “diminished reactivity”.
For the substance “C-DAVYIAPF (CDAVYIAPF; also: C-terminal modification)”, the “reactivity/titer of induced sera” value in the assay on Ang II peptide is “diminished reactivity”.
Regarding “C-DRAAAHAF (CDRAAAHAF; also: C-terminal modification)”, the “reactivity/titer of induced sera” value in the assay with Ang II peptide is recorded as “diminished reactivity”.
As to “C-DRVYAAPF (CDRVYAAPF; also: C-terminal modification)”, in the assay with Ang II peptide, the “reactivity/titer of induced sera” value is reported as “diminished reactivity”.
As for “C-DRVYIHAA (CDRVYIHAA; also: C-terminal modification)”, the “reactivity/titer of induced sera” value in the assay on Ang II peptide is given as “diminished reactivity”.
With “peptide variant with G on position 1: Ang II peptide CDRVYIHPF with G on position 1, KLH-linked; compare GRVYIHPF (SEQ ID NO:6)”, the “sera titer against the injected peptide” value in assay [2] is given as “almost twice as high”. In addition, the “increase of reactivity against Ang II” value in the assay on Ang II peptide (versus sera of Ang II treated animals) is about 50%.
